Measured values as given in ChEMBL document CHEMBL1201862, “PubChem BioAssay data set” (2004).
The source made the active and inactive calls.

What was measured:
[1] = NIH-3T3 fibroblast cytotoxicity, dose response, cytotoxicity control, cell-based, fluorescence, Alamar Blue, secondary assay (AID 2327); assay type: functional;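 further: NIH-3T3 mouse fibroblasts cultured with fluconazole at 8 µg/mL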
[2] = target: ATP-dependent molecular chaperone HSP82 (Candida albicans (strain WO-1) (Yeast), UniProt C4YTQ8); assay: loss of DOC-induced GRE-beta-galactosidase reporter signal, dose response, Hsp90 inhibitor project, S. cerevisiae, luminescence (AID 2400); assay type: functional, cell-based;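 further: beta-galactosidase luminescence from glucocorticoid response element reporter as proxy for Hsp90 function; inhibitor potency where signal loss means Hsp90 inhibition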
Chain of ATP-dependent molecular chaperone HSP82 (C4YTQ8 whole entry): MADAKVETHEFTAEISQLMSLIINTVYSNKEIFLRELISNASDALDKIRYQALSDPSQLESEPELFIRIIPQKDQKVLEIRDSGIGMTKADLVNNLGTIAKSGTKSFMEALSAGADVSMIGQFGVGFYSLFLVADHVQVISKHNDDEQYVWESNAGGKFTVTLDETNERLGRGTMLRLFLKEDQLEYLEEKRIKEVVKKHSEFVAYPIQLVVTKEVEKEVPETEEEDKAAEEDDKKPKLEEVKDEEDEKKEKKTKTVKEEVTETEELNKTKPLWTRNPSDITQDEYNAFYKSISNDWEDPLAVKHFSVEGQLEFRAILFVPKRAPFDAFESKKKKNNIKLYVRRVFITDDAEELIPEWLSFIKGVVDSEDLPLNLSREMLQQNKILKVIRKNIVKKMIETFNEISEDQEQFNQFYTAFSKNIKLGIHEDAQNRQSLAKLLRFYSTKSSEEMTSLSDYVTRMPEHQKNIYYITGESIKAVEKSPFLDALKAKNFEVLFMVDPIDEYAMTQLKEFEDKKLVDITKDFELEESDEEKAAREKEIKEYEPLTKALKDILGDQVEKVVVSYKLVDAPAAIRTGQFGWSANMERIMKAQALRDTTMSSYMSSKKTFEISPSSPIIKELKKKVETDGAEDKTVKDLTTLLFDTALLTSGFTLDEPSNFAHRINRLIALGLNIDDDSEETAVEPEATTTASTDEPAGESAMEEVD

[3] = C. albicans growth with fluconazole, confirmation, fluorescence, retest (AID 2467); assay type: functional, cell-based
[4] = target: Serine/threonine-protein phosphatase (Candida dubliniensis (strain CD36 / CBS 7987 / NCPF 3949 / NRRLY-17841) (Yeast), UniProt B9W6M3); assay: calcineurin pathway inhibitors in yeast reporter, dose response, S. cerevisiae, CDRE-lacZ, luminescence, secondary (AID 2388); assay type: functional, cell-based;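 further: yeast reporter cells carrying a calcineurin-responsive lacZ construct stimulated with calcium chloride; luminescent beta-galactosidase reporter signal in whole cells rather than isolated phosphatase activity; potency for inhibition where a drop in reporter signal means calcineurin blockade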
Chain of Serine/threonine-protein phosphatase (B9W6M3 whole entry): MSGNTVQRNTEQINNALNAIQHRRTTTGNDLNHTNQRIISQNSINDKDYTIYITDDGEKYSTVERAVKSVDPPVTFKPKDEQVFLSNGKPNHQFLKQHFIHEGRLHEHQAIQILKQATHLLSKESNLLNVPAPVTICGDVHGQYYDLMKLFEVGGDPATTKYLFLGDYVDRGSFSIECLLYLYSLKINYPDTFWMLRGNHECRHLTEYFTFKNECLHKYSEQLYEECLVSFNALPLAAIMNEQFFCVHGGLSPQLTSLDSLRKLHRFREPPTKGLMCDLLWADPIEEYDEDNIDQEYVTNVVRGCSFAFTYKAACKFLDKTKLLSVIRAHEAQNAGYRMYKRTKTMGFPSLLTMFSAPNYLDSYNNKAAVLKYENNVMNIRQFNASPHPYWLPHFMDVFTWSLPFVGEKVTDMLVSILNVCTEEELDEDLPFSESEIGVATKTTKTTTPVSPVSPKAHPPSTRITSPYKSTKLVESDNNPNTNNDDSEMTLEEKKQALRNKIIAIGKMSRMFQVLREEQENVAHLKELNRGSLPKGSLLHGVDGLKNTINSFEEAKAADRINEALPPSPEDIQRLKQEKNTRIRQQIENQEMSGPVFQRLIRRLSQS

HeLa = assay: HeLa cell cytotoxicity, dose response, cytotoxicity control, 48 h, plate reader, cherry-picks (AID 504942); assay type: functional, cell-based; details: Homo sapiens
Trypsin = Trypsin (Sus scrofa, UniProt P00761); assay: porcine trypsin inhibitors, dose response, selectivity assay for Rce1 protease inhibitor project, biochemical, quenched peptide fluorescence, cherry-pick (AID 488789)
Chain of Trypsin (P00761 whole entry): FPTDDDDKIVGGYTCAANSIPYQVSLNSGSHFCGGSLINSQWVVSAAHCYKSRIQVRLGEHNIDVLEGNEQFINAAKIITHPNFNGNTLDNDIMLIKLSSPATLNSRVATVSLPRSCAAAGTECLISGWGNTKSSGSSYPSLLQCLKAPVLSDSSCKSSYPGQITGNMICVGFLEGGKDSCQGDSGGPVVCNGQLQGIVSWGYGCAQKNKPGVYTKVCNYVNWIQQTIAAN

Protein skinhead-1 = target: T1, Protein skinhead-1 (Caenorhabditis elegans, UniProt P34707); assay type: functional
T1 sequence (P34707 whole entry): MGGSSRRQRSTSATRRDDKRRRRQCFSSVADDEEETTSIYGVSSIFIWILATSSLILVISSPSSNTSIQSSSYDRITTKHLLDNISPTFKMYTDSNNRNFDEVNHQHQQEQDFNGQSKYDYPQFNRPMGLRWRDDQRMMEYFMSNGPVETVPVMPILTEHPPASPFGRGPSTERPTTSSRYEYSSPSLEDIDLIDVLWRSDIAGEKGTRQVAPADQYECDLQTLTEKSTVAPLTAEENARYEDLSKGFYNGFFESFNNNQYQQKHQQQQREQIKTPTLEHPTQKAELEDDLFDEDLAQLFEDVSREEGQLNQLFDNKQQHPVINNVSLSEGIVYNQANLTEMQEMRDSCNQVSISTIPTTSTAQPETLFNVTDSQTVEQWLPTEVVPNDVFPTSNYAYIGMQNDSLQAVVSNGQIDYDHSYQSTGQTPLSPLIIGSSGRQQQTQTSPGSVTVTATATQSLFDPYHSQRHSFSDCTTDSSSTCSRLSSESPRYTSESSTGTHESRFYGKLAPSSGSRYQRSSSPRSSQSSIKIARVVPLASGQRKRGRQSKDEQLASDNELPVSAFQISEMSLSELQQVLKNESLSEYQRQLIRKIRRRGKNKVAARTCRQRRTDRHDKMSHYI

HEK293 = assay: inhibitors of LMP1-driven NF-kB reporter, dose response, cell-based, HEK293, luciferase, cherry-pick (AID 588343); assay type: functional; details: Homo sapiens
[5] = target: T2, Acyl-homoserine lactone acylase PvdQ (Pseudomonas aeruginosa (strain LESB58), UniProt Q9I194); assay: P. aeruginosa PvdQ acylase inhibitors, dose response, biochemical, fluorescence, plate reader and imaging, cherry-picks (AID 493231)
T2 sequence (Q9I194 whole entry): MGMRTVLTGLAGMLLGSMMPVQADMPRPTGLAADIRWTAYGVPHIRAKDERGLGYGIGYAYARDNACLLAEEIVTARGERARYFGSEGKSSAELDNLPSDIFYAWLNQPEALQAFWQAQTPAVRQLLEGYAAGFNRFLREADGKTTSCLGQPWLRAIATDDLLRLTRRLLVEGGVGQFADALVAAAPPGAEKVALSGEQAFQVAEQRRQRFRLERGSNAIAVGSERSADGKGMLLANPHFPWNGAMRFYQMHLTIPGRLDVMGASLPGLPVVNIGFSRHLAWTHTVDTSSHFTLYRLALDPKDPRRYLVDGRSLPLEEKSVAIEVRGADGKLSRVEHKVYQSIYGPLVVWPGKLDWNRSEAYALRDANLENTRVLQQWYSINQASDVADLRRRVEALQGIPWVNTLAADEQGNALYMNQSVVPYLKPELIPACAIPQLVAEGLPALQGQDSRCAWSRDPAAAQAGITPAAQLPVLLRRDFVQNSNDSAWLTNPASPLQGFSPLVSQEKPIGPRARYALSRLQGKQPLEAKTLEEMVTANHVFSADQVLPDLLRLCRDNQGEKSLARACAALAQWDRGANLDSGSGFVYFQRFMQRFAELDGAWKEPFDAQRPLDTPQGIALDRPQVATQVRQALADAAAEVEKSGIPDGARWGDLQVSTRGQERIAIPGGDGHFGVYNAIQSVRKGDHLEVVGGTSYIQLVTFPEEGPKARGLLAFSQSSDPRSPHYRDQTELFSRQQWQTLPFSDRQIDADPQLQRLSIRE

Hexokinase HKDC1 = target: T3, Hexokinase HKDC1 (Homo sapiens, UniProt Q2TB90); assay: SAR analysis of small molecule inhibitors of hexokinase domain containing I (HKDC1). [Related pubchem assays (depositor defined):AID493160, AID493190]; assay type: functional
T3 sequence (Q2TB90 whole entry): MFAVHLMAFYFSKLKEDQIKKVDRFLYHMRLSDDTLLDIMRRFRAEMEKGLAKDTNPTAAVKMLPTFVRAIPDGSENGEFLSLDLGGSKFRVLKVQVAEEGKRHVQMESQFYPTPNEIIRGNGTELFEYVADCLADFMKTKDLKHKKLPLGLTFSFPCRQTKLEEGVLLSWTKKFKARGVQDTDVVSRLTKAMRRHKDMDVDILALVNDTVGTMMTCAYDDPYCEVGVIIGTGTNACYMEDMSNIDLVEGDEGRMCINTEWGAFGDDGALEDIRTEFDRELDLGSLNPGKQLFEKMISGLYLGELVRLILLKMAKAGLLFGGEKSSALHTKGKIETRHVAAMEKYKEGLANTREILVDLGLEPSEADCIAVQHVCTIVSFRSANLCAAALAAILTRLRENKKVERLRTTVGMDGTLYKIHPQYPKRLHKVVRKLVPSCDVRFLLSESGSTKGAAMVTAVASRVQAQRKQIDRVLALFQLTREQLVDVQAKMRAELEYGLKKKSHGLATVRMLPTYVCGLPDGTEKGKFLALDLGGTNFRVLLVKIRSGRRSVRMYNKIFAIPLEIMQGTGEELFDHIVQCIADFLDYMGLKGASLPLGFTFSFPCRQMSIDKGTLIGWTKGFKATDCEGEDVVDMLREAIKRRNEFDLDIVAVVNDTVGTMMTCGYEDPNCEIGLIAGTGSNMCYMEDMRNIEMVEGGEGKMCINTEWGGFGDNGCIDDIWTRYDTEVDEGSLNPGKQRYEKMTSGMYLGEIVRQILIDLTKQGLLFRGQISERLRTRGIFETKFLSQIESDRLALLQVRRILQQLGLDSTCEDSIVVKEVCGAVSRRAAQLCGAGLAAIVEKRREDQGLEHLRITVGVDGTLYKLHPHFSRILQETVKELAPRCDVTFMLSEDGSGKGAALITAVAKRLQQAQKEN

Hexokinase-1 = target: T4, Hexokinase-1 (Homo sapiens, UniProt P19367); assay: SAR analysis of small molecule inhibitors of hexokinase domain containing I (HKDC1) in the hexokinase 1 selectivity assay. [Related pubchem assays (depositor defined):AID493160, AID493190]; assay type: functional
T4 sequence (P19367 whole entry): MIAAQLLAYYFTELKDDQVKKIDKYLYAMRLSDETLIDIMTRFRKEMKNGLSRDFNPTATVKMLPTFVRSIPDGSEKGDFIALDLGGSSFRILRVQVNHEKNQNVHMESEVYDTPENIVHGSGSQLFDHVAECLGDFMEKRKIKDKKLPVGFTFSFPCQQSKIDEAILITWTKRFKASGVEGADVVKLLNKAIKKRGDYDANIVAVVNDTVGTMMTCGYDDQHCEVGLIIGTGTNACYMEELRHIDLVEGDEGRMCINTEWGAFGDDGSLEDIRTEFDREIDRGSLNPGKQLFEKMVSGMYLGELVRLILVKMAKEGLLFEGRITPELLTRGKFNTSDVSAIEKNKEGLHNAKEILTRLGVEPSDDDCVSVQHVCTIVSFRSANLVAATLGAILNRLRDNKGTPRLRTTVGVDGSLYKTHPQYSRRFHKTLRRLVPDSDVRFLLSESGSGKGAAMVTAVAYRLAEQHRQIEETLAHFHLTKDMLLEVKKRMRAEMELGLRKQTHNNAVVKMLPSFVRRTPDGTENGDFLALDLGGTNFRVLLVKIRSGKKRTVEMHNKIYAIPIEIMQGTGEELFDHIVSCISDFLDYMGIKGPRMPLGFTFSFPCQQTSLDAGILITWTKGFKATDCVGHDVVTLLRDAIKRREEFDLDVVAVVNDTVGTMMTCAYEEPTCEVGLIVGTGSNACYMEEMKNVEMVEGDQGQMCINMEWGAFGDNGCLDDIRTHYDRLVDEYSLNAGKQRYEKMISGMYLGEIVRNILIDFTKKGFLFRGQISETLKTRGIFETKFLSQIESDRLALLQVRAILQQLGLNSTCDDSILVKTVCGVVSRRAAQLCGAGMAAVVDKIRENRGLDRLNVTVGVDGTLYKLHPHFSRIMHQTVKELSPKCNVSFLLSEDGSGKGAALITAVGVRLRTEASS

Nonstructural protein 1 = Nonstructural protein 1 (Influenza A virus, UniProt Q194T2); assay type: functional, Influenza A virus (A/California/07/2009(H1N1))
Chain of Nonstructural protein 1 (Q194T2 whole entry): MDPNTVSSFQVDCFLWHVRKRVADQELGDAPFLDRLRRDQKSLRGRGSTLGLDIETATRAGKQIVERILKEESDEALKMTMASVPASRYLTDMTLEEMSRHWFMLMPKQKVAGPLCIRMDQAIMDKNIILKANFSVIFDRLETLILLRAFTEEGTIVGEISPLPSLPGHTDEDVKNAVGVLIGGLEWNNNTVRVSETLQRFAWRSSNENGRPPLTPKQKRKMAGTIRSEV

BJ [6] = assay: cytotoxicity toward BJ-TERT fibroblasts, dose response, cell-based, RAS-independent, luminescence (AID 1933); assay type: functional; details: Homo sapiens
[7] = system: Streptococcus sp. 'group A'; assay: growth inhibition of control SK(-) GAS strain, dose response, counter-screen for streptokinase expression inhibitor project, luminescence, kanamycin, BacTiterGlo, confirmation (AID 1900); assay type: functional, organism-based
[8] = cytotoxicity toward DRD oncogenic fibroblasts, dose response, cell-based, non-viral oncogenic, luminescence (AID 1934); assay type: functional; details: Homo sapiens
[9] = cytotoxicity toward NIH3T3 fibroblasts, dose response, counter-screen, cell-based, ATP luminescence, mouse fibroblasts (AID 2010); assay type: functional;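 further: cells exposed to compound for about 90 hours before reading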
Streptococcus = assay: Group A Streptococcus viability loss, dose response, counter-screen for streptokinase expression inhibitor project, luminescence, BacTiterGlo (AID 1915); assay type: functional, organism-based;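 further: potency for reduction of bacterial viability or growth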
Vero [10] = assay: cells; assay type: functional; details: Chlorocebus sabaeus
[11] = target: T5, Polyadenylate-binding protein 1 (Homo sapiens, UniProt P11940); assay: PABP1 MLLE–PAM2 binding inhibitor potency, dose response, biochemical, fluorescence polarization, FITC-PAM2 peptide (AID 602259); assay type: functional; details: read-out: IC50_Mean
T5 sequence (P11940 whole entry): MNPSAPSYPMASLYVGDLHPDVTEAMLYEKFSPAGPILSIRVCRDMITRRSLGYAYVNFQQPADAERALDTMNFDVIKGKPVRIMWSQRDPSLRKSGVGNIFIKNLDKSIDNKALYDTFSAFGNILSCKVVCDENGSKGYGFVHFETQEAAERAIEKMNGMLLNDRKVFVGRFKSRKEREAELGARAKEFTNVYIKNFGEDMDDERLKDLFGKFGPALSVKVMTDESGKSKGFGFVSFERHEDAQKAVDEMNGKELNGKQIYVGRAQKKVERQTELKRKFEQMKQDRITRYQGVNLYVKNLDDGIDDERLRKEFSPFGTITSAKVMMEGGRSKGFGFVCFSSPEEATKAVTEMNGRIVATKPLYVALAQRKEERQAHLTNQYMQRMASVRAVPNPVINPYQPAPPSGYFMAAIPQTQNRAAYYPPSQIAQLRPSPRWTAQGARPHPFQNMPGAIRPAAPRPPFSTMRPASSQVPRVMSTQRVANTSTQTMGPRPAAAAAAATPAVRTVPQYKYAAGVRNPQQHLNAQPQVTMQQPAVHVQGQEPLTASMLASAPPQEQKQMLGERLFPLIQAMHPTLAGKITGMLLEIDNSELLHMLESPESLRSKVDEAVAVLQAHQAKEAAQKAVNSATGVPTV

[12] = inhibitors of intracellular T. cruzi replication, confirmation, NIH3T3 host cells, beta-gal luminescence (AID 2044); assay type: functional, cell-based;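 further: intracellular parasites grown in NIH/3T3 mouse fibroblasts as host cells; luminescent beta-galactosidase reporter signal from transgenic T. cruzi replicating inside host cells; inhibitors lower the luminescence signal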
BJ [13] = assay: cells; assay type: functional, cell-based; details: Homo sapiens
Vero [14] = assay: Vero cell cytotoxicity, cytotoxicity control for flavivirus capping enzyme inhibitors (AID 588742); assay type: functional; details: Chlorocebus sabaeus
[15] = target: T5, Polyadenylate-binding protein 1; assay: PABP1 MLLE–PAM2 interaction inhibitors, dose response, miRNA deadenylation inhibitor project, biochemical, fluorescence polarization, Cy5-PAM2 peptide, secondary (AID 602260); assay type: functional; details: read-out: IC50_Mean
BJ [16] = assay: cytotoxicity toward BJ-TERT-LT-ST fibroblasts, dose response, cell-based, RAS-independent, luminescence (AID 1935); assay type: functional; details: Homo sapiens;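 further: BJ fibroblasts immortalized with TERT plus LT and ST oncogenes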

CCOc1ccc(/C=C/C2=CC(C)(C)NC(S)=N2)cc1
EC50 [1]: 17.1 µM (active)
EC50 [2]: > 150 µM (inactive)
EC50 [3]: 1.95 µM (active)
EC50 [4]: > 180 µM (inactive)

c1ccn2cc(-c3ccc4c(c3)OCCO4)nc2c1
AC50 (HeLa): 55.2 µM (active)
AC50 (Trypsin): 6.17 µM (active)
IC50 (Protein skinhead-1): > 100 µM (inactive)
AC50 (HEK293): 1.53 µM (active)
AC50 [5]: 4.31 µM (active)

Cc1ccc(Cn2c(/C=C/c3cccnc3)nc3ccccc3c2=O)cc1
IC50 (Hexokinase HKDC1): > 80 µM (inactive)
IC50 (Hexokinase-1): > 80 µM (inactive)

COc1ccc(/C(C#N)=C/c2cccnc2)cc1
AC50 (HeLa): 254 µM (active)
AC50 [5]: 9.73 µM (active)

CCc1ccc2c(c1)C1(NN=C(c3ccccc3)S1)C(=O)N2 (stereo unspecified)
IC50 (Nonstructural protein 1): 45.5 µM (active)
EC50 (BJ [6]): 13.7 µM (inconclusive)
EC50 [7]: 0.278 µM (active)
EC50 [8]: 49.4 µM (active)
EC50 [9]: 5.31 µM (active)
EC50 (Streptococcus): 1.84 µM (active)
CC50 (Vero [10]): 14.9 µM (active)
IC50 [11]: > 66 µM (inactive)
EC50 [12]: 0.524 µM (active)
EC50 (BJ [13]): 86.3 µM (active)
CC50 (Vero [14]): 7.61 µM (active)
IC50 [15]: > 66 µM (inactive)
EC50 (BJ [16]): 17.7 µM (inconclusive)
